Assay type in all cases: physicochemical
The nature of data set [1]: Absorption spectrum measurement. Particulars: for Λabs. max: 0.1% DMSO as cosolvent; for maximum absorption wavelength: PBS (1% DMSO). As to the method: The absorption spectrum of a […] PBS solution of comparative compound 2 (containing 0.1% DMSO as cosolvent) was measured.
The maximum absorption wavelength of compound 1 was 763 nm, and the maximum absorption wavelength of compound 4 was 732 nm.

Data set [2] in a line: Fluorescence spectrum / quantum efficiency of fluorescence (ICG in DMSO as standard). Particulars: both water and organic solvents; excitation 760 nm. As to the method:
The absorption spectra and fluorescence spectra (excitation wavelength 760 nm) of […] PBS, methanol, DMF, and chloroform solutions of comparative compound 1 (each containing 0.1% DMSO as cosolvent) were measured.

A short description of data set [3]: Changes over time in the absorption spectrum in water (PBS). The conditions noted are these: PBS solution, 0.1% DMSO as cosolvent.

Regarding `Cc1ccccc1C1=C2C=C/C(=[N+]3/CCc4ccccc43)C=C2[Si](C)(C)c2cc(N3CCc4ccccc43)ccc21` [comparative compound 1, 2-Me-Si-QSY21], in data set [1], the “absorption spectrum reached up to” value is listed as “up to 850 nm”. The Λabs. max was 790 nm in data set [1] (Chloroform), 790 nm in data set [1] (DMF), 779 nm in data set [1] (MeOH) and 764 nm in data set [1] (PBS). In data set [2], this compound registered a fluorescence quantum yield not above 0.001.
For the compound `Cc1ccccc1C1=C2C=C/C(=[N+]3/CCc4cc(S(=O)(=O)O)ccc43)C=C2[Si](C)(C)c2cc(N3CCc4cc(S(=O)(=O)O)ccc43)ccc21` [comparative compound 2, 2-Me-SO3H—Si-QSY21], in data set [1] (PBS solution, 0.1% DMSO), the “change in absorption wavelength due to introduction of a sulfone group” value is “no change in absorption wavelength”. Also, the “changes over time in absorption in water (stability in water)” value (shortened to “changes over time in absorption in water”) in data set [3] is on record as “a gradual decrease in absorption was observed in water”.
`Cc1cccc(C)c1C1=C2C=C/C(=[N+]3/CCc4cc(S(=O)(=O)O)ccc43)C=C2[Si](C)(C)c2cc(N3CCc4cc(S(=O)(=O)O)ccc43)ccc21` [compound 1, 2,6-diMe-SO3H Indoline-Si-QSY21]: in data set [1], the maximum absorption wavelength worked out at 763 nm. In addition, the “changes over time in absorption in water” value in data set [3] is on record as “no decrease in absorption in water was observed”.
Take `COc1cccc(OC)c1C1=C2C=C/C(=[N+]3/CCc4cc(S(=O)(=O)O)ccc43)C=C2[Si](C)(C)c2cc(N3CCc4cc(S(=O)(=O)O)ccc43)ccc21` [compound 2, 2,6-diOMe-SO3H Indoline-Si-QSY21]: the “changes over time in absorption in water” value in data set [3] is on record as “no decrease in absorption in water was observed”.
`Cc1cccc(C)c1C1=C2C=C/C(=[N+]3/CCCc4cc(S(=O)(=O)O)ccc43)C=C2[Si](C)(C)c2cc(N3CCCc4cc(S(=O)(=O)O)ccc43)ccc21` [compound 4, 2,6-diMe-SO3H Tetrahydroquinoline-Si-QSY21] gave a maximum absorption wavelength in data set [1] of 732 nm.

Source of the values: patent US10004815B2, “Near-infrared quenching group” (priority 2013, dated 2018).
